Assays:
[1] = test system: Phytophthora cactorum; assay: 96 well plate test; assay type: cell-based; set-up: key to EC50 Phytophthora cactorum: G: no control detected at 2 ppm; F: an EC50 of ≥2 ppm; an EC50 of less than 2 ppm; conditions: agar amended to 2, 0.2, 0.02 and 0.002 ppm, 18° C., assessed after 2 to 3 days; for EC50: Phytophthora cactorum
Protocol: Compounds were screened in 96 well plates with 10 compounds per plate. Each compound was screened using agar amended to 2, 0.2, 0.02 and 0.002 ppm, with proline at 50 and 10 ppm and 0.2% DMSO used as controls. Each test concentration and standard was replicated twice on a plate. Compounds were screened against Phytophthora cactorum. The agar used in the test is a 1% potato dextrose agar. 1000 spores/mL agar were added to the appropriate agar.
A ×10 stock solution in 2% DMSO was produced for each dose i.e. 20, 2, 0.2 and 0.02 ppm, and 10 μl of this added to the appropriate wells on the plate. An equivalent amount of 2% DMSO and proline stock at 500 and 100 ppm were added for the controls. To each well 90 μl of the appropriate agar spore suspension was added to give the required final well concentrations. Plates were incubated at room temperature (18° C.) and assessed after 2 to 3 days. The amount of pathogen growth in each well was compared to the DMSO controls and an EC50 concentration was calculated. The results are provided in Table 1 in which G represents no control detected at 2 ppm, F represents an EC50 of ≥2 ppm, and E represents an EC50 of less than 2 ppm.

[2] = test system: Pythium ultimum; assay: Amended agar assay; assay type: cell-based; set-up: key to % control Pythium ultimum (% reduction in colony growth compared to the control plate): D: no control detected at this concentration; C: up to 50% control; B: from 50 to 99% control; A: a control of greater than 99%, i.e. no detectable colony growth; conditions: potato dextrose agar amended with compound at 2 ppm, 18° C., 2 to 7 days; for inhibition of growth at 2 ppm: Globisporangium ultimum, read-out: % control Pythium ultimum (% reduction in colony growth compared to the control plate)
Protocol: Amended Agar Assay Testing was carried out on potato dextrose agar (PDA) amended with each compound at a test concentration of 2 ppm. Amended agar was poured into three replicate 9 cm petri dishes. Each replicate dish was inoculated in the centre with a 5 mm agar plug taken from the leading edge of a culture aged between 2 and 7 days old; the age of the culture was dependent on the growth rate of the pathogen being tested. The test pathogen was Pythium ultimum. Plates were incubated at 18° C. and the diameter of each colony measured before growth on the fastest growing plate reached the plate edge. This varied between 2 and 7 days depending on the growth rate of test pathogens. The % reduction in colony growth compared to the control plate was calculated. The results are provided in Table 1, in which D represents no control detected at this concentration; C represents up to 50% control; B from 50 to 99% control; and A represents a control of greater than 99%, i.e. no detectable colony growth.

EC50 [1] [mg/L]	EC50 Phytophthora cactorum [1]	Structure (SMILES)	inhibition of growth at 2 ppm [2] [%]	% control Pythium ultimum (% reduction in colony growth compared to the control plate) [2]
< 2		Cn1nnnc1-n1c(OCc2cccc(NC(=O)C3CC3)n2)nc2c(Cl)cccc21 [Compound 1, N-(6-(((4-Chloro-1-(1-methyl-1H-tetrazol-5-yl)-1H-benzo[d]imidazol-2-yl)oxy)methyl)pyridin-2-yl)cyclopropanecarboxamide]	> 99	
< 2		Cn1nnnc1-n1c(OCc2cccc(NC(=O)OC3CCCC3)n2)nc2c(Br)cccc21 [Compound 40]	> 99	
< 2		Cn1nnnc1-n1c(OCc2cccc(NC(=O)C(C)(C)C)n2)nc2c(Cl)cccc21 [Compound 19]	> 99	
< 2		CCCOC(=O)Nc1cccc(COc2nc3c(Cl)cccc3n2-c2nnnn2C)n1 [Compound 16]	> 99	
< 2		Cn1nnnc1-n1c(OCc2cccc(NC(=O)C3CCCC3)n2)nc2c(Cl)cccc21 [Compound 10]	> 99	
< 2		CC(C)COC(=O)Nc1cccc(COc2nc3c(C4CC4)cccc3n2-c2nnnn2C)n1 [Compound 47]	> 99	
< 2		CCCC(=O)Nc1cccc(COc2nc3c(Cl)cccc3n2-c2nnnn2C)n1 [Compound 12]	> 99	
< 2		COc1cccc2c1nc(OCc1cccc(NC(=O)OC(C)(C)C)n1)n2-c1nnnn1C [Compound 8]	> 99	
< 2		COc1cc(F)cc2c1nc(OCc1cccc(NC(=O)OC(C)(C)C)n1)n2-c1nnnn1C [Compound 4]	> 99	
≥ 2		CCOC(=O)Nc1cccc(COc2nc3c(Cl)cccc3n2-c2nnnn2C)n1 [Compound 14]	> 99	
< 2		Cn1nnnc1-n1c(OCc2cccc(NC(=O)C3CCCC3)n2)nc2c(Br)cccc21 [Compound 37]	> 99	
≥ 2		COc1cc(F)cc2c1nc(OCc1cccc(NC(=O)C3CC3)n1)n2-c1nnnn1C [Compound 6]	50 to 99	
< 2		Cn1nnnc1-n1c(OCc2cccc(NC(=O)C3CCC3)n2)nc2c(Cl)cccc21 [Compound 32]	> 99	
< 2		Cn1nnnc1-n1c(OCc2cccc(NC(=O)OC3CCCC3)n2)nc2c(Cl)cccc21 [Compound 17]	> 99	
≥ 2		CC(C)OC(=O)Nc1cccc(COc2nc3c(Cl)cccc3n2-c2nnnn2C)n1 [Compound 18]	> 99	
< 2		Cn1nnnc1-n1c(OCc2cccc(NC(=O)C(F)(F)F)n2)nc2c(Cl)cccc21 [Compound 29]	> 99	
≥ 2		CC(=O)Nc1cccc(COc2nc3c(Cl)cccc3n2-c2nnnn2C)n1 [Compound 28]	50 to 99	

Second part, the compound before the results:

Structure (SMILES)	EC50 [1] [mg/L]	EC50 Phytophthora cactorum [1]	inhibition of growth at 2 ppm [2] [%]	% control Pythium ultimum (% reduction in colony growth compared to the control plate) [2]
CC(C)CC(=O)Nc1cccc(COc2nc3c(Cl)cccc3n2-c2nnnn2C)n1 [Compound 26]	< 2		> 99	
Cn1nnnc1-n1c(OCc2cccc(NC(=O)CC(C)(C)C)n2)nc2c(Cl)cccc21 [Compound 33]	< 2		> 99	
Cc1cccc2c1nc(OCc1cccc(NC(=O)OC(C)(C)C)n1)n2-c1nnnn1C [Compound 21]	< 2		> 99	
CC(C)COC(=O)Nc1cccc(COc2nc3c(Cl)cccc3n2-c2nnnn2C)n1 [Compound 15]	< 2		> 99	
Cn1nnnc1-n1c(OCc2cccc(NC(=O)COc3ccccc3)n2)nc2c(Cl)cccc21 [Compound 2]	< 2		> 99	
CCCCC(=O)Nc1nc(COc2nc3c(Cl)cccc3n2-c2nnnn2C)cs1 [Compound 43]		G		D
CC(C)CCC(=O)Nc1cccc(COc2nc3c(Cl)cccc3n2-c2nnnn2C)n1 [Compound 9]	< 2		> 99	
CCC(CC)C(=O)Nc1cccc(COc2nc3c(Cl)cccc3n2-c2nnnn2C)n1 [Compound 27]	< 2		> 99	
CC(C)CCC(=O)Nc1nc(COc2nc3c(Cl)cccc3n2-c2nnnn2C)cs1 [Compound 44]	≥ 2		< 50	
Cn1nnnc1-n1c(OCc2cccc(NC(=O)OC(C)(C)C)n2)nc2c(O)cccc21 [Compound 22, tert-Butyl (6-(((4-hydroxy-1-(1-methyl-1H-tetrazol-5-yl)-1H-benzo[d]imidazol-2-yl)oxy)methyl)pyridin-2-yl)carbamate]	≥ 2		50 to 99	
CC(C)COC(=O)Nc1cccc(COc2nc3c(-c4ccccc4)cccc3n2-c2nnnn2C)n1 [Compound 46]	< 2		> 99	
CCCCC(=O)Nc1cccc(COc2nc3c(Br)cccc3n2-c2nnnn2C)n1 [Compound 42]	< 2		> 99	
Cn1nnnc1-n1c(OCc2cccc(NC(=O)c3ccccc3)n2)nc2c(Cl)cccc21 [Compound 31]	< 2		> 99	
CCCCOC(=O)Nc1cccc(COc2nc3c(Br)cccc3n2-c2nnnn2C)n1 [Compound 35]	< 2		> 99	
Cn1nnnc1-n1c(OCc2cccc(NC(=O)CC(F)(F)F)n2)nc2c(Cl)cccc21 [Compound 30]	< 2		> 99	
CCCCC(=O)Nc1cccc(COc2nc3c(Cl)cccc3n2-c2nnnn2C)n1 [Compound 25]	< 2		> 99	
CCCCOC(=O)Nc1cccc(COc2nc3c(Cl)cccc3n2-c2nnnn2C)n1 [Compound 13]	< 2		> 99	
Cn1nnnc1-n1c(OCc2cccc(NC(=O)OC(C)(C)C)n2)nc2c(-c3ccccc3)cccc21 [Compound 45, tert-Buty (6-(((1-(1-methyl-1H-tetrazol-5-yl)-4-phenyl-1H-benzo[d]imidazol-2-yl)oxy)methyl)pyridin-2-yl)carbamate]	< 2		> 99	
Cn1nnnc1-n1c(OCc2cccc(NC(=O)OC(C)(C)C)n2)nc2c(Cl)cccc21 [Compound 3]	< 2		> 99	
CCCOC(=O)Nc1cccc(COc2nc3c(Br)cccc3n2-c2nnnn2C)n1 [Compound 39]	< 2		> 99	
Cn1nnnc1-n1c(OCc2cccc(NC(=O)OC(C)(C)C)n2)nc2c(Br)cccc21 [Compound 34, tert-Butyl (6-(((4-bromo-1-(1-methyl-1H-tetrazol-5-yl)-1H-benzo[d]imidazol-2-yl)oxy)methyl)pyridin-2-yl)carbamate]	< 2		> 99	
C=CCOC(=O)Nc1cccc(COc2nc3c(Cl)cccc3n2-c2nnnn2C)n1 [Compound 11]	< 2		> 99	
CC(C)COC(=O)Nc1cccc(COc2nc3c(Br)cccc3n2-c2nnnn2C)n1 [Compound 38]	< 2		> 99	
C=CCOc1cccc2c1nc(OCc1cccc(NC(=O)OC(C)(C)C)n1)n2-c1nnnn1C [Compound 7, tert-butyl (6-(((4-(allyloxy)-1-(1-methyl-1H-tetrazol-5-yl)-1H-benzo[d]imidazol-2-yl)oxy)methyl)pyridin-2-yl)carbamate]	< 2		> 99	
